Patent US20230112484A1, “COMPOSITIONS FOR CROP PROTECTION” (Agrematch Ltd., priority 2020, published 2023)

Assays:
Format in all cases: in vivo
[1] = test system: Amaranthus palmeri; assay: Paper germination (Example 1); conditions: 0.1 mg/ml
Method: (§1) Compounds were dissolved in DMSO and then in distilled water to get 0.1 or 0.5 mg/ml solution with 0.5% DMSO.
(§2) 0.5% DMSO solution in water was used as a negative control. As a positive control, 0.1 mg/ml oxyfluorfen (Galigan) solution was used.
(§3) A towel paper was placed in each box as bedding for seeds. Each box was soaked with 6 ml of the solutions on its paper. 13 seeds were placed on the wet paper and the box was sealed and incubated under conditions provided bellow.
Amaranthus palmeri—first 2 days under dark conditions. Plants were first incubated at 25° C. for 8 hr, then at 30° C. for 16 hr. Afterwards, plants were incubated at 25° C. for 8 hr in dark, followed by 16 hr incubation at 30° C. in light.
(§4) Gemination was assessed and scored after 3-7 days. Scoring scale: 0—complete germination inhibition, 100—no effect.

[2] = test system: Lolium rigidum; assay: Paper germination (Example 1); conditions: 0.1 mg/ml
Method: as §1, §2, §3
Lolium rigidum—first 4 days under dark conditions at 21° C. Afterwards, plants were incubated at 21° C. for 8 hr in dark, followed by 16 hr at 21° C. in light.
as §4

[3] = test system: Lolium rigidum; assay: Soil germination (Example 1)
Method: (§5) Compounds were dissolved in DMSO and then in distilled water to get 0.01-2 mg/ml solution with 1% or 2% DMSO. 1% or 2% DMSO solution in water was used as a negative control. As a positive control, 0.1 or 0.2 mg/ml oxyfluorfen (Galigan) solution was used.
(§6) Flowerpots were filled with 30 g of soil, and 4-5 seeds were sowed in each flowerpot. Each treatment contained 3 flowerpots. Each flowerpot was sprayed with 1.5 ml of the dissolved compound. Soil was let dry for about 1 hour at room conditions, and then each flowerpot was sub-irrigated with 40 ml water and incubated under conditions provided below.
(§7) Amaranthus palmeri was incubated at 25° C. for 8 hr in dark, followed by 16 hr at 30° C. in light. Lolium rigidum was incubated at 21° C. for 8 hr in dark, followed by 16 hr at 21° C. in light. Germination was assessed and scored after 4-7 days. Scoring scale: 0—complete germination inhibition, 100—no effect.

[4] = test system: Amaranthus palmeri; assay: Soil germination (Example 1); conditions: for Amaranthus palmeri soil germination: score 0 = complete germination inhibition, 100 = no effect
Method: as §5, §6, §7

[5] = test system: Abutilon theophrasti; assay: Foliar experiment (Example 2); conditions: 0.5 mg/ml; score 0 = complete phytotoxic effect, 100 = no effect
Method: (§8) Compounds were dissolved in DMSO and then in distilled water to get 0.1 or 0.5 mg/ml solution with 2% DMSO. Break-Thru surfactant was added to a final concentration of 0.05%. Negative control—an aqueous solution of 2% DMSO and 0.05% Break-Thru. Positive control—2 mg/ml Glyphosate (Roundup). 1.5 ml of each compound solution were sprayed on the foliage of different plants, which were 6-16 days old at the day of the experiment. Each treatment contained 3 pots. Plants were let dry for about 15 minutes at room conditions, and then incubated at controlled growth chambers. Phytotoxicity was assessed and scored 4-10 days after applications. Scoring scale: 0—complete phytotoxic effect, 100—no effect. [table]

[6] = test system: Amaranthus palmeri; assay: Foliar experiment (Example 2); conditions: 0.5 mg/ml; score 0 = complete phytotoxic effect, 100 = no effect; 4-10 days after application
Method: as §8

[7] = test system: Brassica napus; assay: Foliar experiment (Example 2); conditions: 0.5 mg/ml; score 0 = complete phytotoxic effect, 100 = no effect
Method: as §8

[8] = test system: Echinochloa colonum; assay: Foliar experiment (Example 2); conditions: 0.5 mg/ml; score 0 = complete phytotoxic effect, 100 = no effect
Method: as §8

[9] = test system: Gossypium hirsutum; assay: Foliar experiment (Example 2); conditions: 0.5 mg/ml; score 0 = complete phytotoxic effect, 100 = no effect
Method: as §8

[10] = test system: Lactuca sativa; assay: Foliar experiment (Example 2); conditions: 0.5 mg/ml; score 0 = complete phytotoxic effect, 100 = no effect
Method: as §8

[11] = test system: Lolium rigidum; assay: Foliar experiment (Example 2); conditions: 0.5 mg/ml; score 0 = complete phytotoxic effect, 100 = no effect
Method: as §8

[12] = test system: Phalaris brachystachys; assay: Foliar experiment (Example 2); conditions: 0.5 mg/ml; score 0 = complete phytotoxic effect, 100 = no effect
Method: as §8

[13] = test system: Setaria adhaerens; assay: Foliar experiment (Example 2); conditions: 0.5 mg/ml; score 0 = complete phytotoxic effect, 100 = no effect
Method: as §8

[14] = test system: Sinapis alba; assay: Foliar experiment (Example 2); conditions: 0.5 mg/ml; score 0 = complete phytotoxic effect, 100 = no effect
Method: as §8

[15] = test system: Solarium nigrum; assay: Foliar experiment (Example 2); conditions: 0.5 mg/ml; score 0 = complete phytotoxic effect, 100 = no effect
Method: as §8

[16] = test system: Triticum vulgare; assay: Foliar experiment (Example 2); conditions: 0.5 mg/ml; score 0 = complete phytotoxic effect, 100 = no effect
Method: as §8

[17] = test system: Zea mays; assay: Foliar experiment (Example 2); conditions: 0.5 mg/ml; score 0 = complete phytotoxic effect, 100 = no effect
Method: as §8

[18] = test system: Abutilon theophrasti; assay: Soil germination (Example 3); conditions: 0.5 mg/ml; score 0 = complete germination inhibition, 100 = no effect; after 7 days
Method: (§9) Compounds were dissolved in DMSO and then in distilled water to get 0.1 or 0.5 mg/ml solution with 2% DMSO. 2% DMSO solution in water was used as a negative control. No positive control was used in this assay. Flowerpots were filled with 30 g of soil, each treatment contained three flowerpots. Each flowerpot was sprayed with 1.5 ml of the dissolved compound. Soil was let dry for about 1 hour at room conditions, and then each flowerpot was sub-irrigated with 40 ml water and incubated at controlled growth chambers, under conditions provided on table 6. Gemination was assessed and scored after 7 days. Scoring scale: 0—complete germination inhibition, 100—no effect. [table]

[19] = test system: Amaranthus palmeri; assay: Soil germination (Example 3); conditions: 0.5 mg/ml; score 0 = complete germination inhibition, 100 = no effect; after 7 days
Method: as §9

[20] = test system: Brassica napus; assay: Soil germination (Example 3); conditions: 0.5 mg/ml; score 0 = complete germination inhibition, 100 = no effect; after 7 days
Method: as §9

[21] = test system: Echinochloa colonum; assay: Soil germination (Example 3); conditions: 0.5 mg/ml; score 0 = complete germination inhibition, 100 = no effect; after 7 days
Method: as §9

[22] = test system: Gossypium hirsutum; assay: Soil germination (Example 3); conditions: 0.5 mg/ml; score 0 = complete germination inhibition, 100 = no effect; after 7 days
Method: as §9

[23] = test system: Lactuca sativa; assay: Soil germination (Example 3); conditions: 0.5 mg/ml; score 0 = complete germination inhibition, 100 = no effect; after 7 days
Method: as §9

[24] = test system: Lolium rigidum; assay: Soil germination (Example 3); conditions: 0.5 mg/ml; score 0 = complete germination inhibition, 100 = no effect; after 7 days
Method: as §9

[25] = test system: Setaria adhaerens; assay: Soil germination (Example 3); conditions: 0.5 mg/ml; score 0 = complete germination inhibition, 100 = no effect; after 7 days
Method: as §9

[26] = test system: Sinapis alba; assay: Soil germination (Example 3); conditions: 0.5 mg/ml; score 0 = complete germination inhibition, 100 = no effect; after 7 days
Method: as §9

[27] = test system: Solarium nigrum; assay: Soil germination (Example 3); conditions: 0.5 mg/ml; score 0 = complete germination inhibition, 100 = no effect; after 7 days
Method: as §9

[28] = test system: Triticum vulgare; assay: Soil germination (Example 3); conditions: 0.5 mg/ml; score 0 = complete germination inhibition, 100 = no effect; after 7 days
Method: as §9

[29] = test system: Zea mays; assay: Soil germination (Example 3); conditions: 0.5 mg/ml; score 0 = complete germination inhibition, 100 = no effect; after 7 days
Method: as §9

[30] = test system: a variety of plants; assay: Foliar experiment (Example 2), overall statement; conditions: as shown in Table 5
Method: as §8

CC(Cl)/C=C/C(=O)N(CC(C)C)c1ccc(Cl)cc1F (stereo not shown)
paper germination reduction of Amaranthus palmeri [1]: not active
paper germination reduction of Lolium rigidum [2]: not active
Lolium rigidum soil germination ([3]; 1 mg/ml): unable to reduce soil germination

CC(Cl)/C=C/C(=O)N(Cc1ccc(Cl)s1)CC(C)C (stereo not shown) [Compound 4]
Amaranthus palmeri soil germination ([4]; 0.1 mg/ml): 0
Amaranthus palmeri soil germination ([4]; 0.25 mg/ml): 0
Amaranthus palmeri soil germination ([4]; 0.5 mg/ml): 0
Amaranthus palmeri soil germination ([4]; 1 mg/ml): 0
soil germination of Amaranthus palmeri, result in words ([4]; concentration not given): active
Lolium rigidum soil germination ([3]; 0.5 mg/ml, score 0 = complete germination inhibition, 100 = no effect): 60
Lolium rigidum soil germination ([3]; 2 mg/ml, score 0 = complete germination inhibition, 100 = no effect): 70
soil germination of Lolium rigidum, result in words ([3]; concentration not given): active
Herbicidal activity, foliar, Abutilon theophrasti [5]: 5
Herbicidal activity, foliar, Amaranthus palmeri [6]: 0
Herbicidal activity, foliar, Brassica napus [7]: 0
Herbicidal activity, foliar, Echinochloa colonum [8]: 70
Herbicidal activity, foliar, Gossypium hirsutum [9]: 60
Herbicidal activity, foliar, Lactuca sativa [10]: 0
Herbicidal activity, foliar, Lolium rigidum [11]: 10
Herbicidal activity, foliar, Phalaris brachystachys [12]: 5
Herbicidal activity, foliar, Setaria adhaerens [13]: 5
Herbicidal activity, foliar, Sinapis alba [14]: 10
Herbicidal activity, foliar, Solarium nigrum [15]: 0
Herbicidal activity, foliar, Triticum vulgare [16]: 100
Herbicidal activity, foliar, Zea mays [17]: 80
Herbicidal activity, soil germination, Abutilon theophrasti [18]: 10
Herbicidal activity, soil germination, Amaranthus palmeri [19]: 0
Herbicidal activity, soil germination, Brassica napus [20]: 10
Herbicidal activity, soil germination, Echinochloa colonum [21]: 5
Herbicidal activity, soil germination, Gossypium hirsutum [22]: 90
Herbicidal activity, soil germination, Lactuca sativa [23]: 70
Herbicidal activity, soil germination, Lolium rigidum [24]: 60
Herbicidal activity, soil germination, Setaria adhaerens [25]: 5
Herbicidal activity, soil germination, Sinapis alba [26]: 30
Herbicidal activity, soil germination, Solarium nigrum [27]: 10
Herbicidal activity, soil germination, Triticum vulgare [28]: 60
Herbicidal activity, soil germination, Zea mays [29]: 80
Herbicidal activity in a variety of plants, foliar, result in words [30]: solid herbicidal activity
